Measurements from patent publication US9150482B2 (Development Center for Biotechnology, priority 2012, dated 2015).
Like-named read-outs stand apart in the source and are kept apart here. Marks after values point to notes of the source that are not given here. Blank lines part the entries; values can stand above or below the compound they belong to.

Tests used:
GLP-1 receptor = molecular target: T1, GLP-1 receptor (Homo sapiens, UniProt P43220); assay: Receptor arrestin translocation assay (GLP-1 potentiator activity, U2OS cells transfected with GLP-1 receptor gene); assay type: cell-based
T1 construct: expressed in transfected cells; host or cells: U2OS (human bone osteosarcoma)
T1 sequence (P43220 24-463, species assumed): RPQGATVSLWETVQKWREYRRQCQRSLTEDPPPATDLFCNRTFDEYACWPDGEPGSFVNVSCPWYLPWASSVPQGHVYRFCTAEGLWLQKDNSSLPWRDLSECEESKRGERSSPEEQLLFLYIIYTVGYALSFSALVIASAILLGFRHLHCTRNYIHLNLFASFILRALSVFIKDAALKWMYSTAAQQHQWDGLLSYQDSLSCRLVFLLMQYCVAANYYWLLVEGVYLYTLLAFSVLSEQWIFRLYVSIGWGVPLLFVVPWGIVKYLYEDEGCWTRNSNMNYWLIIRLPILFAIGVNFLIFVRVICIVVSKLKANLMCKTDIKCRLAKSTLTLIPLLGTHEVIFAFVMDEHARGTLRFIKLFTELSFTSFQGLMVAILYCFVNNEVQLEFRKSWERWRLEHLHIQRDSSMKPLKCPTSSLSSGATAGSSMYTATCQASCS
Experimental: For example, these cells may be plated as monolayer on a test plate (e.g., a 384-well plate). The cells, for example, may be plated at a density of 4000 cells per well. The test sample concentrations may be 0.2-0.000002 mg/ml. The test volumes may be 25 microliter, and the test time may be 1 hr.
GLP-1 receptors are G-protein coupled receptors with seven transmembrane domains. After activation by hormones or neural stimulants, many G-protein coupled cell surface receptors will internalize from the cell surface to the cytoplasm in endocytosis responses. […] This process may be used to assay the test samples. The extents of receptor endocytosis are closely related to the concentrations of the test samples—the higher the sample concentrations, the stronger the endocytosis responses. Because the densities of cell surface receptors are fixed, when the sample concentrations reach a high number, the extents of endocytosis responses would not increase with increasing sample concentrations, i.e., the response reaches saturation. Based on the concentrations and saturation measurements, one can determine the receptor binding affinities of the test samples.
After activation of G-protein coupled receptors, the receptors are typically desensitized or inactivated. Arrestin is involved in such desensitization or inactivation processes. That is, arrestin will be recruited to the GPCR to desensitize or inactivate the receptors. Therefore, monitoring the translocation of GFP-tagged arrestin from the cytosol to the activated GPCRs on the plasma membrane would allow one to measure the binding of test compounds to the receptor target. (Hudson et al., “High-content screening of know G protein-coupled receptors by arrestin translocation,” Methods Enzymol., 414: 63-78 (2006)).
Using this assay, the following test samples have been assessed: (a) compound 1 (MW 318), (b) compound 2 (MW 318), (c) compound 3 (MW 334), (d) compound 5 (MW 304), (e) compound 6 (MW 376). […] When the sample concentrations reach certain high concentrations, the extents of endocytosis responses will not further increase with increasing sample concentrations because the responses have reached saturation.
Based on the binding curves and saturation measurements as a function of test sample concentrations, the receptor affinities of the test samples can be determined.

RINm5F cells = assay: Insulin secretion tests in rat pancreatic beta cells RINm5F; assay type: cell-based; details: 2 hours, FIG. 4; for insulin secretion with exendin-4: 16 mM glucose, ELISA; for effect on insulin secretion in the absence of exendin-4: no exendin-4, 16 mM glucose
Experimental: Rat pancreatic beta cell line RINm5F was purchased from the Food Industry Research and Development Institute (Hsinchu, Taiwan), No. BCRC 60410; source: ATCC CRL-11 605. The cells are cultured in 10% FBS RPMI-1640 medium, in a constant temperature CO2 incubator, under 5% CO2, 37° C. and 95% humidity, for subsequent experiments.
To each 96-well plate, add the RINm5F cells (8×10^5 cells/well) and culture the cells for 2 days before the experiments. Before testing, remove the culture medium. To each well in the 96-well plates, add 100 ul of KRPH buffer (136 mM NaCl, 4.8 mM KCl, 1.2 mM CaCl2, 1.2 mM KH2PO4, 1.2 mM MgSO4, 5 mM NaHCO3, 10 mM HEPES), 2.8 mM D-glucose, 0.2% bovine serum albumin, pH 7.4, placed in a CO2 incubator at 37° C. for 30 minutes, to allow the pancreatic islet cells to acclimate to the medium change (from RPMI 1640 to KRPH buffer). Remove the 96-well plates from the incubator. […] Incubate the cells in KRPH buffer and glucose (KRPH +0.2% BSA, 16 mM glucose) containing culture medium for 2 hours to allow for insulin secretion by the islet beta cells under glucose stimulation. The supernatants from the incubation are collected and the concentrations of insulin released in the wells are assayed using ELISA. Various insulin ELISA kits are available from commercial sources, such as Calbiotech (Spring Valley, Calif.), Crystal Chem., Inc. (Downers Grove, Ill.), and Mercodia (Uppsala, Sweden).
Two days after inoculating RINm5F cells, about 8×10^5 cells/well in 96-well plates, add the active ingredients, compounds 1, 2, and 3, from wild ginger flower 95% ethanol extracts, to the cells. […] After 2 hours, the insulin contents in the supernatants are assessed using insulin ELISA kits.

normal mice = assay: Intraperitoneal glucose tolerance test (IPGTT) in normal mice; assay type: in vivo, C57BL/6J mice; details: for hypoglycemic effects: oral, normal mice IPGTT; for Blood glucose concentration: mean±SEM
Experimental: In this example, in vivo IPGTT is used to validate the blood glucose lowering activity of compound 1 (purity 70%). Twenty-four (24) six weeks old C57BL/6J mice are fed normal diets in an environment of 12/12 light-dark cycles and a constant temperature controlled at 24±2° C. with an unlimited supply of water and food. The mice are divided into four groups of six each, including a control group and three compound 1 (purity 70%) groups. The three compound 1 groups are respectively given orally compound 1 at dosages of 40 mg/Kg, 60 mg/Kg, and 80 mg/Kg. Mice fasted overnight are allowed to eat for 1 hour. After feeding, wait for another hour before giving the test drugs. Thirty (30) minutes after drug administration, glucose at a dose of 1.5 g/kg body weigh is injected intraperitoneally. Blood glucose levels are measured before the glucose injection (0 minutes), as well as at 30, 60 and 90 minutes after the glucose injection, to observe the blood glucose level change curves.
As shown in FIG. 5 and summarized in the Table below, data are expressed as mean±standard error (SEM). P values are calculated using the t test in the Sigma statistical software, wherein p<0.05 is considered significant and marked as *; p<0.01 is considered highly significant and is marked as **; and p≦0.001 is considered extremely significant and marked as ***.

SMILES: CC1(C)CCC[C@]2(C)[C@H]3CC=C(C=O)C[C@@H](O)[C@]3(C=O)CC[C@@H]12 [Compound 1, Galanal B]
EC50 (GLP-1 receptor; GLP-1 4-8 nM constant, U2OS cells expressing GLP-1R, FIG. 3): 6.603 µg/mL
insulin secretion with exendin-4 (RINm5F cells; exendin-4 2 nM): stimulate more insulin secretions
effect on insulin secretion in the absence of exendin-4 (RINm5F cells): substantially abolished
hypoglycemic effects (normal mice; 40 mg/Kg group): 41%
Blood glucose concentration (normal mice; 40 mg/kg oral, compound 1 purity 70%, 0 minute (before glucose injection)): 120.5 ± 3.8 mg/dL
Blood glucose concentration (normal mice; 40 mg/kg oral, purity 70%, 30 minute after glucose 1.5 g/kg i.p.): 168.2 ± 3.0** mg/dl
Blood glucose concentration (normal mice; 40 mg/kg oral, purity 70%, 60 minute after glucose): 127.0 ± 4.4 mg/dL
Blood glucose concentration (normal mice; 40 mg/kg oral, purity 70%, 90 minute after glucose): 117.3 ± 3.4 mg/dL
hypoglycemic effects (normal mice; 60 mg/Kg group): 45%
Blood glucose concentration (normal mice; 60 mg/kg oral, purity 70%, 0 minute (before glucose injection)): 121.5 ± 3.7 mg/dL
Blood glucose concentration (normal mice; 60 mg/kg oral, purity 70%, 30 minute after glucose): 169.2 ± 3.6** mg/dl
Blood glucose concentration (normal mice; 60 mg/kg oral, purity 70%, 60 minute after glucose): 128.0 ± 4.0 mg/dL
Blood glucose concentration (normal mice; 60 mg/kg oral, purity 70%, 90 minute after glucose): 111.3 ± 2.9* mg/dl
hypoglycemic effects (normal mice; 80 mg/Kg group): 71%
Blood glucose concentration (normal mice; 80 mg/kg oral, purity 70%, 0 minute (before glucose injection)): 120.8 ± 3.7 mg/dL
Blood glucose concentration (normal mice; 80 mg/kg oral, purity 70%, 30 minute after glucose): 154.0 ± 2.5*** mg/dl
Blood glucose concentration (normal mice; 80 mg/kg oral, purity 70%, 60 minute after glucose): 120.3 ± 1.8** mg/dl
Blood glucose concentration (normal mice; 80 mg/kg oral, purity 70%, 90 minute after glucose): 106.7 mg/dL

SMILES: C=C1CCC2C(C)(C)CCC[C@]2(C)C1C1C=C(C=O)CC(O)O1 (stereo partly drawn) [Compound 2, 11-hydroxy-8(17),12(E)-labdadien-15,16-dial 11,15-hemiacetal]
EC50 (GLP-1 receptor; read-out: EC50 (converted)): 13.9 µM
insulin secretion with exendin-4 (RINm5F cells; exendin-4 5 nM): stimulate more insulin secretions
effect on insulin secretion in the absence of exendin-4 (RINm5F cells): substantially abolished

SMILES: C=C1CCC2C(C)(C)CCCC2(C)C1C1C=C(C=O)CC(O)OO1 (stereo not drawn) [Compound 3, Coronarin B]
EC50 (GLP-1 receptor; read-out: EC50 (converted)): 0.196 µM
GLP-1 potentiator activity (in words) (GLP-1 receptor; summary of FIG. 3 results): most potent
insulin secretion with exendin-4 (RINm5F cells; exendin-4 5 nM): stimulate more insulin secretions
effect on insulin secretion in the absence of exendin-4 (RINm5F cells): substantially abolished

Results, then the compound that gave them:

EC50 (GLP-1 receptor; read-out: EC50 (converted)): 8.14 µM
SMILES: C=C1CCC2C(C)(C)CCC[C@]2(C)[C@H]1C/C=C(/C=O)CCO (stereo partly drawn) [Compound 5, (E)-labda-8(17),12-diene-15-ol-16-al]

EC50 (GLP-1 receptor; read-out: EC50 (converted)): 11.6 µM
SMILES: C=C1CCC2C(C)(C)CCC[C@]2(C)[C@H]1C/C=C(/C=O)CC(OCC)OCC (stereo partly drawn) [Compound 6, (E)-15,15-diethoxylabda-8(17),12-dien-16-al]
